Measurements taken from article PMC5218480 (PLoS ONE, 2017).

Tested on: MV-4-11 cells
Assay: Gene expression microarray analysis (Affymetrix PrimeView) and GSEA
Type: cell-based, human
Design: RFU PODN (11730768_x_at) / Fold change /veh PODN (11730768_x_at) / RFU LINC00158 (11744669_a_at) / Fold change /veh LINC00158 (11744669_a_at) / RFU DUSP10 (11751237_a_at) / Fold change /veh DUSP10 (11751237_a_at) / RFU ID3 (11757404_x_at) / Fold change /veh ID3 (11757404_x_at) / RFU PLEKHG5 (11737974_s_at) / Fold change /veh PLEKHG5 (11737974_s_at) / RFU LRRC4B (11730491_at) / Fold change /veh LRRC4B (11730491_at) / RFU GIMAP4 (11747438_a_at) / Fold change /veh GIMAP4 (11747438_a_at) / RFU KRT8 (11758183_x_at) / Fold change /veh KRT8 (11758183_x_at) / RFU CNN1 (11734310_a_at) / Fold change /veh CNN1 (11734310_a_at) / RFU VPS37D (11726825_at) / Fold change /veh VPS37D (11726825_at) / RFU C10orf10 (11716522_x_at) / Fold change /veh C10orf10 (11716522_x_at) / RFU KIR2DL2 /// KIR2DL4 /// KIR2DL5A /// KIR2DL5B /// KIR2DS1 /// KIR2DS2 /// KIR2DS3 /// KIR2DS4 /// KIR3DL3 /// KIR3DL3 /// KIR3DS1 (11738374_at) / Fold change /veh KIR2DL2 /// KIR2DL4 /// KIR2DL5A /// KIR2DL5B /// KIR2DS1 /// KIR2DS2 /// KIR2DS3 /// KIR2DS4 /// KIR3DL3 /// KIR3DL3 /// KIR3DS1 (11738374_at) / RFU C1QL1 (11718748_at) / Fold change /veh C1QL1 (11718748_at) / RFU TMPRSS4 (11747572_a_at) / Fold change /veh TMPRSS4 (11747572_a_at) / RFU HAMP (11756126_x_at) / Fold change /veh HAMP (11756126_x_at) / RFU RNFT2 (11725882_a_at) / Fold change /veh RNFT2 (11725882_a_at) / RFU NR4A2 (11747474_a_at) / Fold change /veh NR4A2 (11747474_a_at) / RFU ABCC12 (11746883_a_at) / Fold change /veh ABCC12 (11746883_a_at) / RFU TMEM136 (11760407_x_at) / Fold change /veh TMEM136 (11760407_x_at) / RFU CLDN22 /// WWC2 (11732394_at) / Fold change /veh CLDN22 /// WWC2 (11732394_at) / RFU HLA-DPB1 (11760878_x_at) / Fold change /veh HLA-DPB1 (11760878_x_at) / RFU SPINT1 (11716480_a_at) / Fold change /veh SPINT1 (11716480_a_at) / RFU GAP43 (11754022_s_at) / Fold change /veh GAP43 (11754022_s_at) / RFU A4GNT (11735810_at) / Fold change /veh A4GNT (11735810_at) / RFU PRB3 (11715151_x_at) / Fold change /veh PRB3 (11715151_x_at) / RFU TUBB4B (11761932_at) / Fold change /veh TUBB4B (11761932_at) / RFU CAPN14 (11732068_a_at) / Fold change /veh CAPN14 (11732068_a_at) / RFU TMCC2 (11721928_a_at) / Fold change /veh TMCC2 (11721928_a_at) / RFU IRGQ (11745062_a_at) / Fold change /veh IRGQ (11745062_a_at) / RFU FAM174B (11720279_a_at) / Fold change /veh FAM174B (11720279_a_at) / RFU TMPRSS4 (11748680_a_at) / Fold change /veh TMPRSS4 (11748680_a_at) / RFU FAM212B (11763350_a_at) / Fold change /veh FAM212B (11763350_a_at) / RFU PLEKHG5 (11743358_a_at) / Fold change /veh PLEKHG5 (11743358_a_at) / RFU ZSCAN30 (11745921_a_at) / Fold change /veh ZSCAN30 (11745921_a_at) / RFU CMKLR1 (11741424_a_at) / Fold change /veh CMKLR1 (11741424_a_at) / RFU LOC101060620 /// MAPK8IP1 (11723275_at) / Fold change /veh LOC101060620 /// MAPK8IP1 (11723275_at) / RFU SPTSSB (11747773_x_at) / Fold change /veh SPTSSB (11747773_x_at) / RFU PRSS12 (11739890_at) / Fold change /veh PRSS12 (11739890_at) / RFU BIN1 (11741810_x_at) / Fold change /veh BIN1 (11741810_x_at) / RFU WNT11 (11732464_a_at) / Fold change /veh WNT11 (11732464_a_at) / RFU C10orf10 (11716521_a_at) / Fold change /veh C10orf10 (11716521_a_at) / RFU C5orf56 (11738089_at) / Fold change /veh C5orf56 (11738089_at) / RFU CYB561 (11721691_x_at) / Fold change /veh CYB561 (11721691_x_at) / RFU ANKRD19P (11752326_a_at) / Fold change /veh ANKRD19P (11752326_a_at) / RFU OR2T12 /// OR2T33 /// OR2T8 (11738714_s_at) / Fold change /veh OR2T12 /// OR2T33 /// OR2T8 (11738714_s_at) / RFU VCAN (11748164_a_at) / Fold change /veh VCAN (11748164_a_at) / RFU JSRP1 (11732532_at) / Fold change /veh JSRP1 (11732532_at) / RFU KRTAP10-11 (11738290_x_at) / Fold change /veh KRTAP10-11 (11738290_x_at) / RFU MYO3A (11730013_a_at) / Fold change /veh MYO3A (11730013_a_at) / RFU EBF3 (11725865_a_at) / Fold change /veh EBF3 (11725865_a_at) / RFU CAMK2N1 (11719241_x_at) / Fold change /veh CAMK2N1 (11719241_x_at) / RFU C5orf56 (11738088_a_at) / Fold change /veh C5orf56 (11738088_a_at) / RFU OLFML3 (11715873_a_at) / Fold change /veh OLFML3 (11715873_a_at) / RFU LOC100653217 /// NTM (11731650_a_at) / Fold change /veh LOC100653217 /// NTM (11731650_a_at) / RFU MAPK11 (11762145_a_at) / Fold change /veh MAPK11 (11762145_a_at) / RFU FIZ1 (11724087_x_at) / Fold change /veh FIZ1 (11724087_x_at) / RFU OASL (11726364_x_at) / Fold change /veh OASL (11726364_x_at) / RFU SOX15 (11748057_x_at) / Fold change /veh SOX15 (11748057_x_at) / RFU CD79A (11719716_a_at) / Fold change /veh CD79A (11719716_a_at) / RFU HIST1H1D (11736915_at) / Fold change /veh HIST1H1D (11736915_at) / RFU CASKIN2 (11723855_a_at) / Fold change /veh CASKIN2 (11723855_a_at) / RFU LOC730098 (11760151_x_at) / Fold change /veh LOC730098 (11760151_x_at) / RFU OR4N2 (11742367_at) / Fold change /veh OR4N2 (11742367_at) / RFU PRRT2 (11749266_a_at) / Fold change /veh PRRT2 (11749266_a_at) / RFU SNX32 (11753110_a_at) / Fold change /veh SNX32 (11753110_a_at) / RFU CDHR5 (11726645_a_at) / Fold change /veh CDHR5 (11726645_a_at) / RFU RCAN1 (11760418_a_at) / Fold change /veh RCAN1 (11760418_a_at) / RFU FAM167A (11723789_a_at) / Fold change /veh FAM167A (11723789_a_at) / RFU FAM26E (11764081_at) / Fold change /veh FAM26E (11764081_at) / RFU ISYNA1 (11749810_s_at) / Fold change /veh ISYNA1 (11749810_s_at) / RFU ACY1 (11761880_at) / Fold change /veh ACY1 (11761880_at) / RFU 11764098_at / Fold change /veh 11764098_at / RFU SAMD14 (11745864_x_at) / Fold change /veh SAMD14 (11745864_x_at) / RFU NPB (11741838_a_at) / Fold change /veh NPB (11741838_a_at) / RFU TMPRSS6 (11731388_a_at) / Fold change /veh TMPRSS6 (11731388_a_at) / RFU KRTAP10-2 (11738614_at) / Fold change /veh KRTAP10-2 (11738614_at) / RFU ARHGAP8 /// PRR5-ARHGAP8 (11727945_x_at) / Fold change /veh ARHGAP8 /// PRR5-ARHGAP8 (11727945_x_at) / RFU KRTAP5-7 /// NADSYN1 (11734609_at) / Fold change /veh KRTAP5-7 /// NADSYN1 (11734609_at) / RFU RASL12 (11751679_a_at) / Fold change /veh RASL12 (11751679_a_at) / RFU CDKN2B (11736163_a_at) / Fold change /veh CDKN2B (11736163_a_at) / RFU PRF1 (11729649_at) / Fold change /veh PRF1 (11729649_at) / RFU, ZNF638 /// ZNF638-IT1 / Fold change vs veh, ZNF638 /// ZNF638-IT1 / RFU, PANK3 / Fold change vs veh, PANK3 / RFU, SH3YL1 / Fold change vs veh, SH3YL1 / RFU, ZEB2 / Fold change vs veh, ZEB2 / RFU, NRIP1 / Fold change vs veh, NRIP1 / RFU, PTTG1IP / Fold change vs veh, PTTG1IP / RFU, CAPN2 / Fold change vs veh, CAPN2 / RFU, MED14 / Fold change vs veh, MED14 / RFU, SNORA58 / Fold change vs veh, SNORA58 / RFU, C1orf63 / Fold change vs veh, C1orf63 / RFU, LRRFIP1 / Fold change vs veh, LRRFIP1 / RFU, NDUFAF7 / Fold change vs veh, NDUFAF7 / RFU, SLC12A2 / Fold change vs veh, SLC12A2 / RFU, IBTK / Fold change vs veh, IBTK / RFU, ESF1 / Fold change vs veh, ESF1 / Fold change vs veh, TMEM50B / RFU, TAOK1 / Fold change vs veh, TAOK1 / RFU, ACBD3 / Fold change vs veh, ACBD3 / RFU, TMA16 / Fold change vs veh, TMA16 / RFU, RWDD3 / Fold change vs veh, RWDD3 / RFU, BCAT1 / Fold change vs veh, BCAT1 / RFU, EDEM3 / Fold change vs veh, EDEM3 / RFU, TMEM33 / Fold change vs veh, TMEM33 / RFU, WDR75 / Fold change vs veh, WDR75 / RFU, AHCTF1 / Fold change vs veh, AHCTF1 / RFU, TFRC / Fold change vs veh, TFRC / RFU, ZDHHC17 / Fold change vs veh, ZDHHC17 / RFU, NOM1 / Fold change vs veh, NOM1 / RFU, ARL8B / Fold change vs veh, ARL8B / RFU, ZBTB11 / Fold change vs veh, ZBTB11 / RFU, TAMM41 / Fold change vs veh, TAMM41 / RFU, KIAA1704 /// LOC100996395 / Fold change vs veh, KIAA1704 /// LOC100996395 / RFU, ING1 / Fold change vs veh, ING1 / RFU, TRMT61B / Fold change vs veh, TRMT61B / RFU, FUBP3 / Fold change vs veh, FUBP3 / RFU, TP53 / Fold change vs veh, TP53 / RFU, TNKS2 / Fold change vs veh, TNKS2 / RFU, ZFP14 / Fold change vs veh, ZFP14 / RFU, ACTR2 / Fold change vs veh, ACTR2 / RFU, PPP3R1 / Fold change vs veh, PPP3R1 / RFU, PIK3R1 / Fold change vs veh, PIK3R1 / RFU, HNRNPA1 / Fold change vs veh, HNRNPA1 / RFU, RNF170 / Fold change vs veh, RNF170 / RFU, ZNF28 / Fold change vs veh, ZNF28 / RFU, RNGTT / Fold change vs veh, RNGTT / RFU, OGT / Fold change vs veh, OGT / RFU, BRD1 / Fold change vs veh, BRD1 / RFU, MARS / Fold change vs veh, MARS / RFU, ZNF655 / Fold change vs veh, ZNF655 / RFU, FAHD1 / Fold change vs veh, FAHD1 / RFU, BDP1 / Fold change vs veh, BDP1 / RFU, LRRCC1 / Fold change vs veh, LRRCC1 / RFU, ARID1A / Fold change vs veh, ARID1A / RFU, ZNF146 / Fold change vs veh, ZNF146 / RFU, ZNF330 / Fold change vs veh, ZNF330 / RFU, GPN3 / Fold change vs veh, GPN3 / RFU, C9orf123 / Fold change vs veh, C9orf123 / RFU, N4BP2L2 / Fold change vs veh, N4BP2L2 / RFU, ARFIP1 / Fold change vs veh, ARFIP1 / RFU, FAM179B / Fold change vs veh, FAM179B / RFU, BCL10 / Fold change vs veh, BCL10 / RFU, UHRF1BP1L / Fold change vs veh, UHRF1BP1L / RFU, BET1 / Fold change vs veh, BET1 / RFU, CNOT2 / Fold change vs veh, CNOT2 / RFU, ZNF268 / Fold change vs veh, ZNF268 / Fold change vs veh, ZNF507 / RFU, DGCR2 / Fold change vs veh, DGCR2 / RFU, WDSUB1 / Fold change vs veh, WDSUB1 / Fold change vs veh, HSP90B1 /// MIR3652 / RFU, ADSS / Fold change vs veh, ADSS / RFU, GK / Fold change vs veh, GK / RFU, ZNF148 / Fold change vs veh, ZNF148 / RFU, TAF9 / Fold change vs veh, TAF9 / RFU, SLC1A5 / Fold change vs veh, SLC1A5 / RFU, SLMO2 / Fold change vs veh, SLMO2 / RFU, ABCC4 / Fold change vs veh, ABCC4 / RFU, LOC101060439 /// RAP1B / Fold change vs veh, LOC101060439 /// RAP1B / RFU, RFX7 / Fold change vs veh, RFX7 / RFU, GTPBP10 / Fold change vs veh, GTPBP10 / RFU, CNEP1R1 / Fold change vs veh, CNEP1R1 / RFU, BIVM-ERCC5 /// ERCC5 / Fold change vs veh, BIVM-ERCC5 /// ERCC5 / RFU, ILF3 / Fold change vs veh, ILF3 / RFU 11762660_at / Fold change /veh 11762660_at / RFU VCAN (11757783_s_at) / Fold change /veh VCAN (11757783_s_at) / RFU DDX43 (11728927_at) / Fold change /veh DDX43 (11728927_at) / RFU KRT8 (11758188_x_at) / Fold change /veh KRT8 (11758188_x_at) / RFU NKD1 (11759106_at) / Fold change /veh NKD1 (11759106_at) / RFU SRD5A1 (11742802_a_at) / Fold change /veh SRD5A1 (11742802_a_at) / RFU TPSAB1 /// TPSB2 (11721975_s_at) / Fold change /veh TPSAB1 /// TPSB2 (11721975_s_at) / RFU GSTM3 (11746129_a_at) / Fold change /veh GSTM3 (11746129_a_at) / RFU IL23R (11737362_x_at) / Fold change /veh IL23R (11737362_x_at) / RFU TMEM51 (11727254_a_at) / Fold change /veh TMEM51 (11727254_a_at) / RFU PIWIL2 (11732686_x_at) / Fold change /veh PIWIL2 (11732686_x_at) / RFU ORM1 (11744905_x_at) / Fold change /veh ORM1 (11744905_x_at) / RFU CCDC152 (11743942_at) / Fold change /veh CCDC152 (11743942_at) / RFU ECM1 (11717891_a_at) / Fold change /veh ECM1 (11717891_a_at) / RFU IL23R (11748794_a_at) / Fold change /veh IL23R (11748794_a_at) / RFU TNFAIP8L3 (11732012_x_at) / Fold change /veh TNFAIP8L3 (11732012_x_at) / RFU MBOAT4 (11741988_at) / Fold change /veh MBOAT4 (11741988_at) / RFU 11764193_at / Fold change /veh 11764193_at / RFU TMEM53 (11763286_at) / Fold change /veh TMEM53 (11763286_at) / RFU MAGEB2 (11727129_at) / Fold change /veh MAGEB2 (11727129_at) / RFU TMEM200A (11744735_a_at) / Fold change /veh TMEM200A (11744735_a_at) / RFU CCDC152 (11751479_a_at) / Fold change /veh CCDC152 (11751479_a_at) / RFU FAM211A (11726209_a_at) / Fold change /veh FAM211A (11726209_a_at) / RFU RGS16 (11746705_a_at) / Fold change /veh RGS16 (11746705_a_at) / RFU VCAN (11755009_s_at) / Fold change /veh VCAN (11755009_s_at) / RFU RHOB (11743442_s_at) / Fold change /veh RHOB (11743442_s_at) / RFU RGS16 (11720943_a_at) / Fold change /veh RGS16 (11720943_a_at) / RFU RGS16 (11720944_at) / Fold change /veh RGS16 (11720944_at) / RFU, VPS4B / Fold change vs veh, VPS4B / RFU, CREB1 / Fold change vs veh, CREB1 / RFU, DNAJC13 / Fold change vs veh, DNAJC13 / RFU, GNAQ / Fold change vs veh, GNAQ / RFU, CDK5R1 / Fold change vs veh, CDK5R1 / RFU, ZRANB3 / Fold change vs veh, ZRANB3 / RFU, CUL4A / Fold change vs veh, CUL4A / RFU, CCNY / Fold change vs veh, CCNY / RFU, UFL1 / Fold change vs veh, UFL1 / RFU, COG3 / Fold change vs veh, COG3 / RFU, DIAPH2 / Fold change vs veh, DIAPH2 / RFU, SKA2 / Fold change vs veh, SKA2 / RFU, AFF3 / Fold change vs veh, AFF3 / RFU, LMF1 / Fold change vs veh, LMF1 / RFU, IPO11 / Fold change vs veh, IPO11 / RFU, DFFB / Fold change vs veh, DFFB / RFU, FOXP1 / Fold change vs veh, FOXP1 / RFU, CARD8 / Fold change vs veh, CARD8 / RFU, STRN3 / Fold change vs veh, STRN3 / RFU, ADK / Fold change vs veh, ADK / RFU, RASSF2 / Fold change vs veh, RASSF2 / RFU, WIPF1 / Fold change vs veh, WIPF1 / RFU, LARP1B / Fold change vs veh, LARP1B / RFU, RASA1 / Fold change vs veh, RASA1 / RFU, RB1 / Fold change vs veh, RB1 / RFU, PPFIA1 / Fold change vs veh, PPFIA1 / RFU, MAT2A / Fold change vs veh, MAT2A / RFU, CCT5 / Fold change vs veh, CCT5 / RFU, WDR92 / Fold change vs veh, WDR92 / RFU, CUX1 / Fold change vs veh, CUX1 / RFU, TTC7A / Fold change vs veh, TTC7A / RFU, TMEM135 / Fold change vs veh, TMEM135 / RFU, DEPTOR / Fold change vs veh, DEPTOR / RFU, CPM / Fold change vs veh, CPM / RFU, DNAJB6 / Fold change vs veh, DNAJB6 / RFU, CACNA2D3 / Fold change vs veh, CACNA2D3 / RFU, DTX4 / Fold change vs veh, DTX4 / RFU, TFCP2 / Fold change vs veh, TFCP2 / RFU, GMCL1 /// GMCL1P1 / Fold change vs veh, GMCL1 /// GMCL1P1 / RFU, AEBP2 / Fold change vs veh, AEBP2 / RFU, SNHG1 /// SNORD22 /// SNORD25 /// SNORD26 /// SNORD27 /// SNORD28 /// SNORD29 /// SNORD31 / Fold change vs veh, SNHG1 /// SNORD22 /// SNORD25 /// SNORD26 /// SNORD27 /// SNORD28 /// SNORD29 /// SNORD31 / Fold change (Aza/veh), C12orf56 (ProbeSet 11735607_a_at) / Fold change (ACY-1035/veh), C12orf56 (ProbeSet 11735607_a_at) / Fold change (Aza/veh), FGFR1OP (ProbeSet 11751329_s_at) / Fold change (ACY-1035/veh), FGFR1OP (ProbeSet 11751329_s_at) / Fold change (Aza/veh), VPS36 (ProbeSet 11739960_a_at) / Fold change (ACY-1035/veh), VPS36 (ProbeSet 11739960_a_at) / RFU SYPL1 (11715823_x_at) / Fold change /veh SYPL1 (11715823_x_at) / RFU IGFBP7 (11715501_s_at) / Fold change /veh IGFBP7 (11715501_s_at) / RFU REEP3 (11722064_at) / Fold change /veh REEP3 (11722064_at) / RFU IGLL1 (11728026_x_at) / Fold change /veh IGLL1 (11728026_x_at): dose or concentration left out as unconfirmed
Conditions: ProbeSet 11728676_at; LIST B

Nc1ccc(-c2cccs2)cc1NC(=O)c1ccc2c(c1)cc(C1CC1)n2CCN1CCOCC1 [ACY-1035]
Fold change vs veh, MED14: 0.95
